{"source": "patent US11213527B2", "about": "“Inhibitory effect of low molecular weight compound on cancer and fibrosis” (NATIONAL UNIVERSITY CORPORATION TOTTORI UNIVERSITY, priority 2014, dated 2022)", "key": {"unsorted HuH7 cells": {"system": "unsorted HuH7 cells", "test": "Mice transplanted with unsorted HuH7 cells", "type": "in vivo", "conditions": "unsorted HuH7 cells instead of CD44-positive HuH7 cells", "excerpt": "The effect of treating malignant tumors may be evaluated by imaging, endoscopic examination, biopsy, or detection of a malignant tumor marker. In addition, the effect of treating cancer stem cells may be evaluated by imaging, endoscopic examination, biopsy, or detection of a cancer stem cell marker. In addition, the effect of treating fibrosis may be evaluated by imaging, endoscopic examination, biopsy, or detection of a fibrosis marker. […] At this time, the level of a marker after administration of a therapeutic drug may be 0.7, 0.5, 0.3, or 0.1 times the level before the administration (or of a control). […] At this time, the number of marker-positive cells after administration of the therapeutic drug may be 0.7, 0.5, 0.3, or 0.1 times the number before the administration (or of a control). Note that in Example 2 below, the therapeutic effect was evaluated by using mice in which CD44-positive HuH7 cells had been subcutaneously transplanted. The present inventors also replaced the above CD44-positive HuH7 cells by unsorted HuH7 cells."}, "Wnt/β-catenin signal [1]": {"system": "Wnt/β-catenin signal", "test": "Dual-luciferase reporter assay in HSC2 cells", "type": "cell-based", "conditions": "48 hours", "experimental": "(§1) First, 5×10^4 of HSC2 cells were seeded on each well of a 24-well plate. After 24 hours, transfection was carried out by using 1 μL of lipofectamine 2000 (Invitrogen, Life Technologies Corp., Carlsbad, Calif.), 50 ng of pTCF4-CMVpro-FLuc, and 2.5 ng of pCMVpro-Rluc. After 48 hours from the low-molecular-weight compound treatment, 100 μL of 20% Passive Lysis Buffer (PROMEGA, Wisconsin, USA) was added to each well of the 24-well plate. The plate was shaken at ordinary temperature for 15 min and was then allowed to stand overnight at −30° C. On the following day, a Dual-Luciferase (a registered trademark) Reporter Assay System (PROMEGA) was used, and luciferase activity was then measured by using a MiniLumat LB 9506 (Berthold Technologies, Bad Wildbad, German)."}, "Wnt/β-catenin signal [2]": {"system": "Wnt/β-catenin signal", "conditions": "induces differentiation of the mesenchymal stem cell into hepatocytes; cited from earlier work"}, "[3]": {"system": "colon cancer cells (DLD-1, HCT 116, colo 205)", "test": "Anti-tumor effect on colon cancer cells (TetraColor ONE)", "type": "cell-based", "conditions": "48 hours", "experimental": "Colon cancer cells (DLD-1, HCT 116, colo 205) were cultured in a DMEM on a 10-cm cell culture dish (TPP Techno Plastic Products AG, Trasadingen, Switzerland) at 5% CO2, 37° C., and a humidity of 100%. The cells at 70-90% confluency were split and washed with PBS (−). Next, 300 μL of Trypsin/EDTA was added to 2 mL of PBS (−) and the cells were incubated with this solution at 37° C. for 5 min to detach the cells. Then, 5 mL of DMEM was used to recover the cells. The recovered cells were centrifuged at 1000 rpm for 3 min to remove a supernatant. Then the cells were suspended in DMEM at 1:4 and subcultured.\nFirst, 5×10^5 colon cancer cells (DLD-1, HCT 116, or colo 205) were seeded on a 96-well plate (TPP). Forty-eight hours after the low-molecular-weight compound treatment, 100 μL of 10% TetraColor ONE (SEIKAGAKU CORPORATION, Tokyo, Japan) was added and the mixture was then incubated at 37° C. After that, absorbance (at a measurement wavelength of 450 nm/a control wavelength of 600 nm) was measured by using a 96-well microplate reader (TECAN, Zurich, Switzerland)."}, "[4]": {"system": "fibrosis markers TGFβ, α-SMA, and COL1A1", "test": "Real-time PCR of fibrosis markers in LX-2 cells", "type": "cell-based, human", "conditions": "compound+TGFβ, with increasing concentration", "experimental": "A human liver stellate cell line (LX-2 cells) was maintained and cultured in a DMEM containing 10% FBS. The cells used for experiments were suspended in a DMEM containing 1% FBS and plated. The cell density was at about 2.0×10^5 cell/cm^2.\nA real-time PCR was carried out to examine an inhibitory effect of each low-molecular-weight compound on fibrosis. The real-time PCR was conducted under conditions indicated in FIG. 55 and the following sections 9.4.1 to 9.4.2. Note that TGFβ, α-SMA, and COL1A1 are fibrosis markers.\nA pre-Mix was prepared by using MilliQ water: 5.2 μL/sample, MgCl2: 0.8 μl/sample, 10 μM primer F: 0.5 μl, 10 μM primer R: 0.5 μl, and LightCycler FastStart DNA Master SYBER Green I (1a+1b): […]/sample. Next, 8 μL of the pre-Mix was pipetted into each well. Then, 2 μL of the sample was added thereto."}, "Wnt/β-catenin signal [5]": {"system": "Wnt/β-catenin signal", "test": "Dual-luciferase reporter assay in colon cancer cells", "type": "cell-based", "conditions": "DLD-1, HCT 116, colo 205; 48 hours", "experimental": "as §1, with “First, 3.34×10^4 colon cancer” for “First, 5×10^4 of HSC2”, “cells (DLD-1, HCT 116, or colo 205)” for “cells”, “of a” for “of the”"}}}
{"smiles": "O=C1[C@H](Cc2ccccc2)N2C(=O)CCN(C(=O)NCc3ccccc3)[C@H]2CN1Cc1cccc2ccccc12", "note": "[IC-2]", "values": [{"measurement": "effect of treating a malignant tumor", "setting": "unsorted HuH7 cells", "value": "exhibits an effect of treating a malignant tumor"}, {"measurement": "inhibitory effect on a Wnt/β-catenin signal in the squamous cell carcinoma cells", "setting": "Wnt/β-catenin signal [1]", "value": "exerted an inhibitory effect"}, {"measurement": "inhibition of a Wnt/β-catenin signal in a mesenchymal stem cell", "setting": "Wnt/β-catenin signal [2]", "value": "inhibit a Wnt/β-catenin signal"}, {"measurement": "inhibitory effect on proliferation of the colon cancer cells", "setting": "[3]", "value": "exerted an inhibitory effect on proliferation"}, {"measurement": "level of expression of COL1A1", "setting": "[4]; 24 or 48 hours", "value": "decreased"}, {"measurement": "level of expression of α-SMA", "setting": "[4]; 24 or 48 hours", "value": "remarkably reduced"}, {"measurement": "level of expression of TGFβ", "setting": "[4]; 24 hours", "value": "decreased"}, {"measurement": "level of expression of TGFβ", "setting": "[4]; 48 hours", "value": "decreased"}, {"measurement": "inhibitory effect on a Wnt/β-catenin signal in the colon cancer cells", "setting": "Wnt/β-catenin signal [5]", "value": "exerted an inhibitory effect"}]}
